From ChEMBL document CHEMBL6127111, “First-in-Class Small Molecule Degrader of Pregnane X Receptor Enhances Chemotherapy Efficacy” (J Med Chem, 2024)

Experiments:
[1] = Cytotoxicity against human SNU-C4 HiBiT-PXR KI cell assessed as cell viability incubated for 24 hrs by celltiter-glo luminescent assay; format: functional
[2] = Cytotoxicity against human SNU-C4 HiBiT-PXR KI cell assessed as cell viability at 30 uM incubated for 24 hrs by celltiter-glo luminescent assay relative to control; format: functional; settings: read-out: Activity
[3] = Cytotoxicity against human SNU-C4 HiBiT-PXR KI cell assessed as cell viability incubated for 72 hrs by celltiter-glo luminescent assay; format: functional
[4] = Cytotoxicity against human SNU-C4 HiBiT-PXR KI cell assessed as cell viability at 30 uM incubated for 72 hrs by celltiter-glo luminescent assay relative to control; format: functional; settings: read-out: Activity
[5] = molecular target: von Hippel-Lindau disease tumor suppressor/Nuclear receptor subfamily 1 group I member 2 (Homo sapiens, UniProt O75469+P40337); test: PROTAC activity at N-terminal PXR/VHL in human SNU-C4 HiBiT-PXR KI cell assessed as reduction in PXR protein level incubated for 24 hrs by Western blot analysis; format: cell-based
Sequence of von Hippel-Lindau disease tumor suppressor/Nuclear receptor subfamily 1 group I member 2 (O75469 whole entry): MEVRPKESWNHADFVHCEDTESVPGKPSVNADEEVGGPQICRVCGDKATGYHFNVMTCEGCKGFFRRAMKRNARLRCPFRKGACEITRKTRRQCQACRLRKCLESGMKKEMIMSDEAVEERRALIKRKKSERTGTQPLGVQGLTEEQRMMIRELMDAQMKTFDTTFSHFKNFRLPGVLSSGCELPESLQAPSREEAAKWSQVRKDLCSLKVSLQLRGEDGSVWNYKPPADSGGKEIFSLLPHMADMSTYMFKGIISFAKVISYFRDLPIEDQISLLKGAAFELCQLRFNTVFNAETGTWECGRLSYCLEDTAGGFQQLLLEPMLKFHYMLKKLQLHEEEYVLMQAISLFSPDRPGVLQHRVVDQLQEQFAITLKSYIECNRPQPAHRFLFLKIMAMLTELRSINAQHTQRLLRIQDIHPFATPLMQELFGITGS
Sequence of von Hippel-Lindau disease tumor suppressor/Nuclear receptor subfamily 1 group I member 2 (P40337 whole entry): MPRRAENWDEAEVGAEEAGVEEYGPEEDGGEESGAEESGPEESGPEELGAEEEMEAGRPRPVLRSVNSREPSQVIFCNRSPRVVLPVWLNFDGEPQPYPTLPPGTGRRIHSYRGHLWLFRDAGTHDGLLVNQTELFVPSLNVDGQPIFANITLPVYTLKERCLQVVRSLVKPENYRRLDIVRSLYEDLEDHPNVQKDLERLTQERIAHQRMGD

Molecule `CCC[C@H](CC)Oc1ccc(C(C)(C)C)cc1NC(=O)c1nnn(-c2cc(C)c(OCCCCCCOCCOCC(=O)N[C@H](C(=O)N3C[C@H](O)C[C@H]3C(=O)NCc3ccc(-c4scnc4C)cc3)C(C)(C)C)cc2OC)c1C` has a CC50 [1] of over 30 µM, a viability at 30 µM [2] of 93.9% and a CC50 [3] of over 30 µM. For the same molecule, the viability at 30 µM [4] was 104%.

Molecule `COc1cc(OCCOCCOCCOCCC(=O)N[C@H](C(=O)N2C[C@H](O)C[C@H]2C(=O)NCc2ccc(-c3scnc3C)cc2)C(C)(C)C)c(C)cc1-n1nnc(S(=O)(=O)c2ccc(C(C)(C)C)cc2)c1C` has a CC50 [1] of over 30 µM, a DC50 [5] of over 30 µM and a CC50 [3] of over 30 µM.

`CCC[C@H](CC)Oc1ccc(C(=O)NCCCCC(=O)N[C@H](C(=O)N2C[C@H](O)C[C@H]2C(=O)NCc2ccc(-c3scnc3C)cc2)C(C)(C)C)cc1NC(=O)c1nnn(-c2cc(OC)ccc2OC)c1C` showed a CC50 [1] of over 30 µM, a DC50 [5] of over 30 µM and a viability at 30 µM [2] of 101%. The CC50 [3] was over 30 µM and the viability at 30 µM [4] was 98.9%.

With `COc1cc(OCCCC(=O)N[C@H](C(=O)N2C[C@H](O)C[C@H]2C(=O)NCc2ccc(-c3scnc3C)cc2)C(C)(C)C)c(C)cc1-n1nnc(S(=O)(=O)c2ccc(C(C)(C)C)cc2)c1C` the CC50 [1] was over 30 µM, the DC50 [5] was over 30 µM and the CC50 [3] was over 30 µM. For the same molecule, the viability at 30 µM [4] was 95.4%.

In the case of `CCC[C@H](CC)Oc1ccc(C(=O)N[C@H](C(=O)N2C[C@H](O)C[C@H]2C(=O)NCc2ccc(-c3scnc3C)cc2)C(C)(C)C)cc1NC(=O)c1nnn(-c2cc(OC)ccc2OC)c1C`, the CC50 [1] is reported as over 30 µM, the DC50 [5] is reported as over 30 µM and the viability at 30 µM [2] is reported as 99.9%. For the same molecule, the CC50 [3] was over 30 µM and the viability at 30 µM [4] was 101%.

Work on `COc1cc(OCCCCCCOCCOCCOCCOCCOCCOCC(=O)N[C@H](C(=O)N2C[C@H](O)C[C@H]2C(=O)NCc2ccc(-c3scnc3C)cc2)C(C)(C)C)c(C)cc1-n1nnc(S(=O)(=O)c2ccc(C(C)(C)C)cc2)c1C` yielded a CC50 [1] of over 30 µM, a DC50 [5] of over 30 µM and a CC50 [3] of over 30 µM.

In the case of `CCC[C@H](CC)Oc1ccc(C(C)(C)C)cc1NC(=O)c1nnn(-c2cc(OC)ccc2OC)c1C`, the CC50 [1] is reported as over 30 µM, the DC50 [5] is reported as over 30 µM and the viability at 30 µM [2] is reported as 95.7%. It also gave a CC50 [3] of over 30 µM and a viability at 30 µM [4] of 98.7%.

`COc1cc(OCCOCCOCCC(=O)N[C@H](C(=O)N2C[C@H](O)C[C@H]2C(=O)NCc2ccc(-c3scnc3C)cc2)C(C)(C)C)c(C)cc1-n1nnc(S(=O)(=O)c2ccc(C(C)(C)C)cc2)c1C` gave a CC50 [1] of over 30 µM, a DC50 [5] of over 30 µM and a CC50 [3] of over 30 µM. The viability at 30 µM [4] was 98.9%.

Molecule `CC(=O)N[C@H](C(=O)N1C[C@H](O)C[C@H]1C(=O)NCc1ccc(-c2scnc2C)cc1)C(C)(C)C` has a CC50 [1] of over 30 µM, a viability at 30 µM [2] of 99.6% and a CC50 [3] of over 30 µM. It also gave a viability at 30 µM [4] of 93%.

Molecule `CCCCOc1ccc(C(C)(C)C)cc1NC(=O)c1nnn(-c2cc(C)c(OCCCCCCOCCOCC(=O)N[C@H](C(=O)N3C[C@H](O)C[C@H]3C(=O)NCc3ccc(-c4scnc4C)cc3)C(C)(C)C)cc2OC)c1C` has a CC50 [1] of over 30 µM, a viability at 30 µM [2] of 96.7% and a CC50 [3] of over 30 µM. For the same molecule, the viability at 30 µM [4] was 91.2%.

In the case of `CCC[C@H](CC)Oc1ccc(C(=O)NCCCCCCCCC(=O)N[C@H](C(=O)N2C[C@H](O)C[C@H]2C(=O)NCc2ccc(-c3scnc3C)cc2)C(C)(C)C)cc1NC(=O)c1nnn(-c2cc(OC)ccc2OC)c1C`, the CC50 [1] is reported as over 30 µM, the DC50 [5] is reported as over 30 µM and the viability at 30 µM [2] is reported as 102%. For the same molecule, the CC50 [3] was over 30 µM and the viability at 30 µM [4] was 104%.

Molecule `COc1cc(OCCCCCCOCCOCC(=O)N[C@H](C(=O)N2C[C@H](O)C[C@H]2C(=O)NCc2ccc(-c3scnc3C)cc2)C(C)(C)C)c(C)cc1-n1nnc(S(=O)(=O)c2ccc(C(C)(C)C)cc2)c1C` has a CC50 [1] of over 30 µM and a CC50 [3] of over 30 µM.

Work on `CCC[C@H](CC)Oc1ccc(C(=O)NCCOCCOCC(=O)N[C@H](C(=O)N2C[C@H](O)C[C@H]2C(=O)NCc2ccc(-c3scnc3C)cc2)C(C)(C)C)cc1NC(=O)c1nnn(-c2cc(OC)ccc2OC)c1C` yielded a CC50 [1] of over 30 µM, a DC50 [5] of over 30 µM and a viability at 30 µM [2] of 103%. The CC50 [3] was over 30 µM and the viability at 30 µM [4] was 89.7%.

`COc1cc(OCCCCCCOCCCCCOCCCCCC(=O)N[C@H](C(=O)N2C[C@H](O)C[C@H]2C(=O)NCc2ccc(-c3scnc3C)cc2)C(C)(C)C)c(C)cc1-n1nnc(S(=O)(=O)c2ccc(C(C)(C)C)cc2)c1C` gave a CC50 [1] of over 30 µM, a CC50 [3] of over 30 µM and a viability at 30 µM [4] of 94.3%.

`COc1cc(OCCCCCCCC(=O)N[C@H](C(=O)N2C[C@H](O)C[C@H]2C(=O)NCc2ccc(-c3scnc3C)cc2)C(C)(C)C)c(C)cc1-n1nnc(S(=O)(=O)c2ccc(C(C)(C)C)cc2)c1C` gave a CC50 [1] of over 30 µM, a DC50 [5] of over 30 µM and a CC50 [3] of over 30 µM.

Molecule `COc1cc(OCCOCCOCCOCCOCCOCCC(=O)N[C@H](C(=O)N2C[C@H](O)C[C@H]2C(=O)NCc2ccc(-c3scnc3C)cc2)C(C)(C)C)c(C)cc1-n1nnc(S(=O)(=O)c2ccc(C(C)(C)C)cc2)c1C` has a CC50 [1] of over 30 µM, a DC50 [5] of over 30 µM and a CC50 [3] of over 30 µM.

For `CCC[C@H](CC)Oc1ccc(C(=O)NCCOCCOCCOCC(=O)N[C@H](C(=O)N2C[C@H](O)C[C@H]2C(=O)NCc2ccc(-c3scnc3C)cc2)C(C)(C)C)cc1NC(=O)c1nnn(-c2cc(OC)ccc2OC)c1C`, the CC50 [1] was over 30 µM, the DC50 [5] was over 30 µM and the viability at 30 µM [2] was 98.3%. It also gave a CC50 [3] of over 30 µM and a viability at 30 µM [4] of 89.1%.

For `COc1cc(OCC(=O)N[C@H](C(=O)N2C[C@H](O)C[C@H]2C(=O)NCc2ccc(-c3scnc3C)cc2)C(C)(C)C)c(C)cc1-n1nnc(S(=O)(=O)c2ccc(C(C)(C)C)cc2)c1C`, the CC50 [1] was over 30 µM, the DC50 [5] was over 30 µM and the CC50 [3] was over 30 µM.

With `COc1cc(OCC(=O)NCCOCCOCCOCCOCC(=O)N[C@H](C(=O)N2C[C@H](O)C[C@H]2C(=O)NCc2ccc(-c3scnc3C)cc2)C(C)(C)C)c(C)cc1-n1nnc(S(=O)(=O)c2ccc(C(C)(C)C)cc2)c1C` the CC50 [1] was over 30 µM, the DC50 [5] was over 30 µM and the CC50 [3] was over 30 µM.

Work on `COc1cc(OCCOCCC(=O)N[C@H](C(=O)N2C[C@H](O)C[C@H]2C(=O)NCc2ccc(-c3scnc3C)cc2)C(C)(C)C)c(C)cc1-n1nnc(S(=O)(=O)c2ccc(C(C)(C)C)cc2)c1C` yielded a CC50 [1] of over 30 µM, a DC50 [5] of over 30 µM and a CC50 [3] of over 30 µM.

In the case of `COc1cc(OCCOCCOCCOCCOCCC(=O)N[C@H](C(=O)N2C[C@H](O)C[C@H]2C(=O)NCc2ccc(-c3scnc3C)cc2)C(C)(C)C)c(C)cc1-n1nnc(S(=O)(=O)c2ccc(C(C)(C)C)cc2)c1C`, the CC50 [1] is reported as over 30 µM, the DC50 [5] is reported as over 30 µM and the CC50 [3] is reported as over 30 µM.

With `COc1ccc(OC)c(-n2nnc(C(=O)Nc3cc(OCCCCCCOCCOCC(=O)N[C@H](C(=O)N4C[C@H](O)C[C@H]4C(=O)NCc4ccc(-c5scnc5C)cc4)C(C)(C)C)cc(C(C)(C)C)c3)c2C)c1` the CC50 [1] was over 30 µM, the viability at 30 µM [2] was 83.2% and the CC50 [3] was over 30 µM. It also gave a viability at 30 µM [4] of 68.2%.

Work on `CCC[C@H](CC)Oc1ccc(C(=O)NCCOCCOCCOCCOCC(=O)N[C@H](C(=O)N2C[C@H](O)C[C@H]2C(=O)NCc2ccc(-c3scnc3C)cc2)C(C)(C)C)cc1NC(=O)c1nnn(-c2cc(OC)ccc2OC)c1C` yielded a CC50 [1] of over 30 µM, a DC50 [5] of over 30 µM and a viability at 30 µM [2] of 100%. For the same molecule, the CC50 [3] was over 30 µM and the viability at 30 µM [4] was 84.1%.

Work on `COc1cc(OCCCCCCOCCOCCOCCCCCC(=O)N[C@H](C(=O)N2C[C@H](O)C[C@H]2C(=O)NCc2ccc(-c3scnc3C)cc2)C(C)(C)C)c(C)cc1-n1nnc(S(=O)(=O)c2ccc(C(C)(C)C)cc2)c1C` yielded a CC50 [1] of over 30 µM, a DC50 [5] of over 30 µM and a CC50 [3] of over 30 µM.

Molecule `CCC[C@H](CC)Oc1ccc(C(C)(C)C)cc1NC(=O)c1nnn(-c2cc(C)c(OC)cc2OC)c1C` has a CC50 [1] of over 30 µM, a DC50 [5] of over 30 µM and a viability at 30 µM [2] of 99.3%. It also gave a CC50 [3] of over 30 µM and a viability at 30 µM [4] of 106%.
